How the values were obtained:
[1] = tested on: nitrosoamine-induced pancreatic cancer; assay: in vivo hemorrhagic necrosis effect; design: species or system hamsters; key to Hemorrhagic necrosis effect: four scales of G4, G3, G2 and G1; four scales of G4, G3, G2 and G1; four scales of G4, G3, G2 and G1; four scales of G4, G3, G2 and G1; details: for Hemorrhagic necrosis effect: intensity of hemorrhagic necrosis at 24 hours following i.v. administration, and pathological study; for photograph of a cancer mass (Fig. 1) / photograph of a cancer mass (Fig. 2): 24 hours after administration, Cn-Ga-DP-diAsp; for photograph of a cancer mass (Fig. 1): n = odd numbers; for photograph of a cancer mass (Fig. 2): n = even numbers
Method: Cancer bearing hamsters of Experiment 1 were i.v. administered the test substance C6-Ga-DP-diAsp (10) (10 mg/ml) which had been diluted with phosphate buffer at 25 mg/kg bodyweight and 12.5 mg/kg bodyweight respectively. The animals were exsanguinated and autopsied at 24 hours after administration, and observed.
The evaluation was based on the four scales of G4, G3, G2 and G1.

[2] = tested on: nitrosoamine-induced pancreatic cancer; assay: in vivo cell growth inhibition effect (tumor size by slide calipers); design: species or system hamsters; details: i.v. 25 mg/kg bodyweight
Method: Tumor bearing hamsters of Experiment 1 were i.v. administered the test substance C10-Mn-DP-diAsp (37) (10 mg/ml) diluted by phosphate buffer at 25 mg/kg bodyweight. The tumor size was measured supracutaneously using slide calipers on an appropriate day following administration.

[3] = tested on: Leukemia cells of a mouse (P388); assay: in vitro photosensitivity test (cell growth inhibition ratio); type: cell-based; details: irradiated at 10,000 lux for 1 hour, incubated for 48 hours, versus group shielded from light
Method: Leukemia cells of a mouse (P388) were placed in wells (a plate with 24 wells) at 5 x 10^4/well, and incubated for 2 hours. The test materials C8-Ga-DP-diAsp (12), C10-Mn-DP-diAsp (37) and photofrin II each at concentrations of 1.56, 3.13, 6.25, 12.5, 25, and 50 ng/ml (common ratio : 2) were prepared. The specified amounts of these test solutions were added to the above culture, irradiated at 10,000 lux for 1 hour, incubated for 48 hours, and the cells per one well were counted. A group shielded from light using an aluminium foil during irradiation was provided as control. The index of photosensitivity was obtained by dividing the cell counts of the respective groups with the cell count of an untreated group provided separately (cell growth inhibition ratio (%)).
However, this was attributed to the toxicity of the test material per se rather than to irradiation.

[4] = luminescence properties of porphyrin derivatives (Table 1); type: physicochemical
Text: There are two stages of destruction; Mechanism I under which the pigments are excited by light to assume the triple state which directly destroys the cancer cells, and Mechanism II under which the pigments in the triple state further excite oxygen to form the singlet state oxygen (activated oxygen) leading to cell necrosis. In the case of porphyrin derivatives, the Mechanism II is considered prevalent. By measuring the triple state life time (the fluorescence and phosphorescence life time) which indicates porphyrin's triple state, the length of phosphorescence life time is compared to reveal the intensity of photo-sensitivity. […] In other words, phosphorescence life time of metalloporphyrins coordinated with such metals as Zn and Ga is long while that of those coordinated with Mn, Fe, or Cu is very short.

[5] = tested on: nitrosoamine-induced pancreatic cancer; assay: laser irradiation to the extirpated organ (excited fluorescent spectrum, N2-PLS measurement), tumor to tissue ratio; type: in vivo, Golden hamsters; details: i.v. 25 mg/kg bodyweight, organs extirpated at 24 hours after administration
Method: Golden hamsters (males, 5 per group, bodyweight approximately 150 g) were implanted subcutaneously tumor cells of the nitrosoamine-induced pancreatic cancer. After 14 to 21 days following implantation, animals were intravenously (i.v.) administered the test substance EG-Ga-DP-diGly (10 mg/ml) which had been diluted with phosphate buffer at 25 mg/kg bodyweight. At 24 hours after administration, the organs including the tumor were extirpated, irradiated with N2-pulsed laser (N2, 337 nm, 2 ns, 400 - 1000 nm), and measured of excited fluorescent spectrum. The wavelengths of 600 - 900 nm were studied using the peak wavelength of NADH at 470 nm as a reference. (N2-PLS measurement). […] (Tumor to tissue ratio).
Excited fluorescent spectra of the organs extirpated at 24 hours after administration were measured, and the peak wavelength at 600 - 900 nm was calculated by setting the peak wavelength at 470 nm as the reference 1. As fluorescence in Mn, Fe and Cu complexes is not sufficiently intense as to enable N2-PLS measurement, the extraction method was applied to these compounds. At 24 hours following administration, the organs were extracted with an organic solvent (such as chloroform-methanol) via acetone powder, and the obtained extract was measured of UV or HPLC to calculate the tumor to tissue ratio.

| Compound | Absorbance [4] [nm] | tumor/tissue cancer/ kidney [5] | tumor/tissue cancer/ liver [5] | tumor/tissue cancer/ lung [5] | tumor/tissue cancer/ serum [5] | Hemorrhagic necrosis effect [1] | other results |
| --- | --- | --- | --- | --- | --- | --- | --- |
| CCCCCCCCCCOC(C)C1=C(C)c2cc3[nH]c(cc4nc(cc5[nH]c(cc1n2)c(C)c5C(C)OCCCCCCCCCC)C(C)=C4CCC(=O)NC(CC(=O)O)C(=O)O)c(CCC(=O)NC(CC(=O)O)C(=O)O)c3C.[Mn] (stereo not drawn) [(37) C10-Mn-DP-diAsp, 2,4-bis(1-decyloxyethyl)-Mn-deuteroporphynyl diaspartic acid] | – | – | – | – | – | G3 | tumor growth compared to the control group (Fig. 6) [2]: notable tumor growth inhibitory effect; photosensitivity [3]: no photosensitivity |
| COC(C)C1=C(C)C2=Cc3c(C(C)OC)c(C)c4[n]3[Ga][n]3c(c(C)c(CCC(=O)NC(CC(=O)O)C(=O)O)c3=CC3=NC(=C4)C(C)=C3CCC(=O)NC(CC(=O)O)C(=O)O)=CC1=N2 (stereo not drawn) [(4) C1-Ga-DP-diAsp, 2,4-bis(1-methoxyethyl)-Ga-deuteroporphynyl diaspartic acid] | – | 2.27 | 1.19 | 0.78 | 2.50 | G1 | – |
| CCCOC(C)C1=C(C)C2=Cc3c(C(C)OCCC)c(C)c4[n]3[Ga][n]3c(c(C)c(CCC(=O)NC(CC(=O)O)C(=O)O)c3=CC3=NC(=C4)C(C)=C3CCC(=O)NC(CC(=O)O)C(=O)O)=CC1=N2 (stereo not drawn) [(6) C3-Ga-DP-diAsp, 2,4-bis(1-propoxyethyl)-Ga-deuteroporphynyl diaspartic acid] | – | 14.44 | 2.95 | 3.42 | 5.91 | G2 | photograph of a cancer mass (Fig. 1) [1]: hemorrhagic necrosis |
| CCCCCCCOC(C)C1=C(C)C2=Cc3c(C(C)OCCCCCCC)c(C)c4[n]3[Ga][n]3c(c(C)c(CCC(=O)NC(CC(=O)O)C(=O)O)c3=CC3=NC(=C4)C(C)=C3CCC(=O)NC(CC(=O)O)C(=O)O)=CC1=N2 (stereo not drawn) [(11) C7-Ga-DP-diAsp, 2,4-bis(1-heptyloxyethyl)-Ga-deuteroporphynyl diaspartic acid] | – | 4.88 | 2.96 | 2.92 | 0.89 | G4 | photograph of a cancer mass (Fig. 1) [1]: hemorrhagic necrosis |
| CCCCCCCCOC(C)C1=C(C)C2=Cc3c(C(C)OCCCCCCCC)c(C)c4[n]3[Ga][n]3c(c(C)c(CCC(=O)NC(CC(=O)O)C(=O)O)c3=CC3=NC(=C4)C(C)=C3CCC(=O)NC(CC(=O)O)C(=O)O)=CC1=N2 (stereo not drawn) [(12) C8-Ga-DP-diAsp, 2,4-bis(1-octyloxyethyl)-Ga-deuteroporphynyl diaspartic acid] | – | 2.12 | 1.47 | 2.20 | 0.29 | G3 | photograph of a cancer mass (Fig. 2) [1]: hemorrhagic necrosis; concentration at which photosensitivity is manifested [3]: ≥ 1.0 ng/mL |
| CCCCOC(C)C1=C(C)C2=Cc3c(C(C)OCCCC)c(C)c4[n]3[Ga][n]3c(c(C)c(CCC(=O)NC(CC(=O)O)C(=O)O)c3=CC3=NC(=C4)C(C)=C3CCC(=O)NC(CC(=O)O)C(=O)O)=CC1=N2 (stereo not drawn) [(8) C4-Ga-DP-diAsp, 2,4-bis(1-butoxyethyl)-Ga-deuteroporphynyl diaspartic acid] | – | 7.72 | 3.54 | 4.47 | 2.00 | G4 | photograph of a cancer mass (Fig. 2) [1]: hemorrhagic necrosis; photograph of a cancer mass (Fig. 1) [1]: hemorrhagic necrosis |
| CCOC(C)C1=C(C)C2=Cc3c(C(C)OCC)c(C)c4[n]3[Ga][n]3c(c(C)c(CCC(=O)NC(CC(=O)O)C(=O)O)c3=CC3=NC(=C4)C(C)=C3CCC(=O)NC(CC(=O)O)C(=O)O)=CC1=N2 (stereo not drawn) [(5) C2-Ga-DP-diAsp, 2,4-bis(1-ethoxyethyl)-Ga-deuteroporphynyl diaspartic acid] | – | 1.25 | 0.71 | 1.25 | 1.16 | G1 | photograph of a cancer mass (Fig. 2) [1]: hemorrhagic necrosis |

More lines, main results first:

| Absorbance [4] [nm] | tumor/tissue cancer/ kidney [5] | tumor/tissue cancer/ liver [5] | tumor/tissue cancer/ lung [5] | tumor/tissue cancer/ serum [5] | Compound | Hemorrhagic necrosis effect [1] | other results |
| --- | --- | --- | --- | --- | --- | --- | --- |
| 570 | – | – | – | – | Ga-protoporphyrin dimethyl ester [Ga-PP-Me] | – | Fluorescence [4]: 575 nm; Phosphorescence [4]: 715 nm; Phosphorescence life time ([4]; Filter paper): 50 ms; Phosphorescence life time ([4]; Solution): 200 ms |
| – | 3.82 | 3.33 | 4.88 | 2.19 | CC(C)=CCC/C(C)=C/COC(C)C1=C(C)C2=Cc3c(C(C)OC/C=C(\C)CCC=C(C)C)c(C)c4[n]3[Ga][n]3c(c(C)c(CCC(=O)NC(CC(=O)O)C(=O)O)c3=CC3=NC(=C4)C(C)=C3CCC(=O)NC(CC(=O)O)C(=O)O)=CC1=N2 (stereo not drawn) [(17) C10(Gera)-Ga-DP-diAsp, 2,4-bis(1-geranyloxyethyl)-Ga-deuteroporphynyl diaspartic acid] | G2 | – |
| – | 3.54 | 2.07 | 3.40 | 1.12 | CCCCCCCCCOC(C)C1=C(C)c2cc3[nH]c(cc4nc(cc5[nH]c(cc1n2)c(C)c5C(C)OCCCCCCCCC)C(C)=C4CCC(=O)NC(CC(=O)O)C(=O)O)c(CCC(=O)NC(CC(=O)O)C(=O)O)c3C.[Ga] (stereo not drawn) [(15) C9-Ga-DP-diAsp, 2,4-bis(1-nonyloxyethyl)-Ga-deuteroporphynyl diaspartic acid] | G2 | photograph of a cancer mass (Fig. 1) [1]: hemorrhagic necrosis |
| 572 | – | – | – | – | C=CC1=C(C)c2cc3[n-]c(cc4nc(cc5[n-]c(cc1n2)c(C)c5CCC(=O)OC)C(CCC(=O)OC)=C4C)c(C)c3C=C.[Cu+2] [Cu-PP-Me] | – | Phosphorescence [4]: 705 nm; Phosphorescence life time ([4]; Filter paper): 20 µs; Phosphorescence life time ([4]; Solution): 100 µs |
| – | 8.54 | 4.38 | 7.00 | 1.35 | CCCCCCCCCCCCOC(C)C1=C(C)c2cc3[nH]c(cc4nc(cc5[nH]c(cc1n2)c(C)c5C(C)OCCCCCCCCCCCC)C(C)=C4CCC(=O)NC(CC(=O)O)C(=O)O)c(CCC(=O)NC(CC(=O)O)C(=O)O)c3C.[Ga] (stereo not drawn) [(22) C12-Ga-DP-diAsp, 2,4-bis (1-dodecyloxyethyl)-Ga-deuteroporphynyl diaspartic acid] | G2 | photograph of a cancer mass (Fig. 2) [1]: hemorrhagic necrosis |
| 590 | – | – | – | – | C=CC1=C(C)c2cc3[n-]c(cc4nc(cc5[n-]c(cc1n2)c(C)c5CCC(=O)OC)C(CCC(=O)OC)=C4C)c(C)c3C=C.[Mg+2] [Mg-PP-Me] | – | Fluorescence [4]: 600 nm |
| 633 | – | – | – | – | C=Cc1c(C)c2cc3[nH]c(cc4nc(cc5nc(cc1[nH]2)C(C)=C5CCC(=O)OC)C(CCC(=O)OC)=C4C)c(C)c3C=C [PP-Me] | – | Fluorescence [4]: 635 nm; Phosphorescence life time ([4]; Filter paper): 1.8 ms |
| 570 | – | – | – | – | C=CC1=C(C)c2cc3[n-]c(cc4nc(cc5[n-]c(cc1n2)c(C)c5CCC(=O)OC)C(CCC(=O)OC)=C4C)c(C)c3C=C.[Co+2] [Co-PP-Me] | – | – |

From patent EP0350948B1, “Porphyrin derivatives” (TOYOHAKKA KOGYO KABUSHIKI KAISHA, priority 1988, dated 1990)
